Reference: patent US5242900A (priority 1991, dated 1993)

Tests used:
normal dog = type: in vivo
Procedure: (§1) Nine dogs of initially normal body weight were studied in accordance with Institutional Guidelines for animal experiments. Exteriorized, indwelling catheters were placed for intra-portal insulin administration and peripheral venous blood sampling. All were studied initially as normals. Subsequently all were pancreatectomized; five were autografted and the remaining four were treated pharmacologically both with the modified insulins described above in Example 1 and the corresponding unmodified conventional extracted insulins. Small venous blood samples were drawn via the indwelling blood sampling catheter at 30-60 minute intervals for plasma glucose determination in the subcutaneous experiments and at -10,0,3,6,10,20,30,60 minutes in the intravenous experiments. […] All animals were conscious and ambulatory during the studies.
(§2) Plasma glucose was determined using a glucose analyzer (Beckman Instruments, Fullerton, CA). IRI was assayed using porcine insulin standard and ^125 I porcine insulin tracer (Novo Research Institute, Gentofte, Denmark), antiserum and a dextran-coated charcoal separation technique (Albisser et al, Diabetes 35:97-100, 1986). In the studies using porcine phosphorylated insulin, the above assay was performed as for porcine insulin, but using equimolar standards of phosphorylated insulin. Parallel standard curves were obtained. […] All values were expressed as mean ±SEM unless otherwise indicated.

pancreatectomized dogs = experiment: Subcutaneous studies in pancreatectomized (diabetic) dogs: plasma glucose; type: in vivo
Procedure: as §1
At the conclusion of experimental protocols, it was verified that all nine of the animals were diabetic by extirpating the grafts (from the transplant recipients) or withdrawing insulin therapy (from the pancreatectomized animals).
as §2
Subsequent to pancreatectomy the animals were studied repeatedly, now in the post-absorptive, hyperglycemic state of 14-20 mM, because the conventional insulin depot administered the previous day had become depleted.

## phosphorylated insulin: porcine insulin chemically phosphorylated with POCl3/phosphoric acid in DMF; 3 or 5 negatively charged adducts; about 5-10% unmodified
Normal dog; dog, in vivo
  first pass extraction by the liver compared with insulin: not extracted to the same extent
Normal dog; normal dog, intra-portal, 2-fold larger dose
  hypoglycemic effect: without major hypoglycemic effect
Normal dog; normal dog, intra-portal, at 15 minutes
  drop in blood glucose: 0.2 mM
Normal dog; normal dog, intra-portal, double dosage
  decrease in plasma glucose: about 0.5 mM
Pancreatectomized dogs; dog, in vivo, sc
  early hypoglycemia: never occurred
  lipo-genesis (fat-like deposits) in the areas of repeated subcutaneous injections: palpable fat-like deposits
Pancreatectomized dogs; fasted pancreatectomized dog, starting 14-20 mM, subcutaneous, 30-150 nMol
  time euglycemia maintained: 2 to 6 h
Pancreatectomized dogs; pancreatectomized dog, subcutaneous, 4-fold larger doses
  glucose lowering effect at larger dose: occurred more rapidly and lasted longer
Pancreatectomized dogs; pancreatectomized dog, subcutaneous, approximately 4 nMol/kg
  plasma glucose lowered to: 4.5 to 6.0 mM
Pancreatectomized dogs; pancreatectomized dog, subcutaneous, smaller dosage repeated at 6-8h intervals
  plasma glucose with repeated injections: maintain plasma glucose in the range normal for postabsorptive dogs
Pancreatectomized dogs; pancreatectomized dogs
  body weight regained after loss following pancreatectomy: 1 to 3 kg
